In one test the target is cMET (Homo sapiens, UniProt P08581). Briefly: Inhibitory activity against MET (cMET), TR-FRET kinase assay. Type of test: biochemical. The settings on record: TR-FRET enzyme assay. The procedure, abridged:
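Human cMET (2 nM dilution) preincubated with compound 20-30 min at room temperature in HEPES pH 7.4 buffer with MnCl2/MgCl2, then 60 min with TK peptide and ATP substrate cocktail (5 uM peptide, 10 mM ATP, prepared at 2× final). EDTA-stopped; europium anti-phosphotyrosine TR-FRET read at 620/665 nm; pIC50 derived.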

In a further test the target is RON (Homo sapiens, UniProt Q04912). Briefly: Inhibitory activity against RON, TR-FRET kinase assay. Type of test: biochemical. The settings on record: TR-FRET enzyme assay. The procedure, abridged: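 Compounds (3-fold series from a 1 mM DMSO stock) were preincubated 20–30 min at RT with RON (0.4 nM solution) in pH 7.4 HEPES, 10 mM MgCl2 buffer. A 2× cocktail of 40 uM ULight-Poly GT and 100 nM ATP was then added for 60 min at RT. After EDTA stop, Eu anti-phosphotyrosine TR-FRET (665/620 nm) was read and IC50 derived.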
Sequence of RON (Q04912 25-1400, species assumed): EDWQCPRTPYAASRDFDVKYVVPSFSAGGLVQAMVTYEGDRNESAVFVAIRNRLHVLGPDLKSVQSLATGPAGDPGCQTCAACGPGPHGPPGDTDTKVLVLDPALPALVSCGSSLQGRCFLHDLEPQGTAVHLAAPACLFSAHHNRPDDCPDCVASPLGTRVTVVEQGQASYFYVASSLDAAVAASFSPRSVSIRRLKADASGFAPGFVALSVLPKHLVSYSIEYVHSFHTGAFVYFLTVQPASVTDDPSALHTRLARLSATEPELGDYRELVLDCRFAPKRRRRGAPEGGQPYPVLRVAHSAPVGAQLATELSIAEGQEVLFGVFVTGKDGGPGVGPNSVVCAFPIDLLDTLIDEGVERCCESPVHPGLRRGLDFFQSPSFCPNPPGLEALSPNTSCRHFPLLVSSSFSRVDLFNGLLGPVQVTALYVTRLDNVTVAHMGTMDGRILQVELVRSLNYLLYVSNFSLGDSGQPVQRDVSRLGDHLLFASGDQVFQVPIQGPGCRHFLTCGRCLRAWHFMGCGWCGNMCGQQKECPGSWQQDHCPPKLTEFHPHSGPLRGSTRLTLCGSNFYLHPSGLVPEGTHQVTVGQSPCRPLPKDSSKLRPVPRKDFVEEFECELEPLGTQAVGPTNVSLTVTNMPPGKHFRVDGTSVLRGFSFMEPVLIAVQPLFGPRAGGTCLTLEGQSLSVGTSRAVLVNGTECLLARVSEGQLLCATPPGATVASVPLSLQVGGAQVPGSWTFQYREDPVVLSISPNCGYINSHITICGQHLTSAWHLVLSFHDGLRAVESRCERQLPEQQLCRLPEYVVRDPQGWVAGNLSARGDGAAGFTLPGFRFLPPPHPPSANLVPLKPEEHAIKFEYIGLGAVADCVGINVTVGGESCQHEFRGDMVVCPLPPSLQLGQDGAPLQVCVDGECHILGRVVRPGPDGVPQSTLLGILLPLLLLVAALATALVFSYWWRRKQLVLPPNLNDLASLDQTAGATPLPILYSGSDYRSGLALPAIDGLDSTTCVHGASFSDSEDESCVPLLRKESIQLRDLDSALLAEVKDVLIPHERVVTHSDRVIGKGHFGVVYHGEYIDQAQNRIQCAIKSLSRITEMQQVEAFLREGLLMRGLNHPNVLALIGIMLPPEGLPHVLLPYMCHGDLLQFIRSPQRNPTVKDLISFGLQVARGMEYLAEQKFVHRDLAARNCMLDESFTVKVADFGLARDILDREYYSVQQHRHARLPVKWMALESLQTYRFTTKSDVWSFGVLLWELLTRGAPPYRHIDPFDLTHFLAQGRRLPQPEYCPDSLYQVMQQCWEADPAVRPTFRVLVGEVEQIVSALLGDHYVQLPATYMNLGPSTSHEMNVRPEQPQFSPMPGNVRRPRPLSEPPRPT

pIC50: −log10 of the molar value.

Sequence of cMET (P08581 25-1390): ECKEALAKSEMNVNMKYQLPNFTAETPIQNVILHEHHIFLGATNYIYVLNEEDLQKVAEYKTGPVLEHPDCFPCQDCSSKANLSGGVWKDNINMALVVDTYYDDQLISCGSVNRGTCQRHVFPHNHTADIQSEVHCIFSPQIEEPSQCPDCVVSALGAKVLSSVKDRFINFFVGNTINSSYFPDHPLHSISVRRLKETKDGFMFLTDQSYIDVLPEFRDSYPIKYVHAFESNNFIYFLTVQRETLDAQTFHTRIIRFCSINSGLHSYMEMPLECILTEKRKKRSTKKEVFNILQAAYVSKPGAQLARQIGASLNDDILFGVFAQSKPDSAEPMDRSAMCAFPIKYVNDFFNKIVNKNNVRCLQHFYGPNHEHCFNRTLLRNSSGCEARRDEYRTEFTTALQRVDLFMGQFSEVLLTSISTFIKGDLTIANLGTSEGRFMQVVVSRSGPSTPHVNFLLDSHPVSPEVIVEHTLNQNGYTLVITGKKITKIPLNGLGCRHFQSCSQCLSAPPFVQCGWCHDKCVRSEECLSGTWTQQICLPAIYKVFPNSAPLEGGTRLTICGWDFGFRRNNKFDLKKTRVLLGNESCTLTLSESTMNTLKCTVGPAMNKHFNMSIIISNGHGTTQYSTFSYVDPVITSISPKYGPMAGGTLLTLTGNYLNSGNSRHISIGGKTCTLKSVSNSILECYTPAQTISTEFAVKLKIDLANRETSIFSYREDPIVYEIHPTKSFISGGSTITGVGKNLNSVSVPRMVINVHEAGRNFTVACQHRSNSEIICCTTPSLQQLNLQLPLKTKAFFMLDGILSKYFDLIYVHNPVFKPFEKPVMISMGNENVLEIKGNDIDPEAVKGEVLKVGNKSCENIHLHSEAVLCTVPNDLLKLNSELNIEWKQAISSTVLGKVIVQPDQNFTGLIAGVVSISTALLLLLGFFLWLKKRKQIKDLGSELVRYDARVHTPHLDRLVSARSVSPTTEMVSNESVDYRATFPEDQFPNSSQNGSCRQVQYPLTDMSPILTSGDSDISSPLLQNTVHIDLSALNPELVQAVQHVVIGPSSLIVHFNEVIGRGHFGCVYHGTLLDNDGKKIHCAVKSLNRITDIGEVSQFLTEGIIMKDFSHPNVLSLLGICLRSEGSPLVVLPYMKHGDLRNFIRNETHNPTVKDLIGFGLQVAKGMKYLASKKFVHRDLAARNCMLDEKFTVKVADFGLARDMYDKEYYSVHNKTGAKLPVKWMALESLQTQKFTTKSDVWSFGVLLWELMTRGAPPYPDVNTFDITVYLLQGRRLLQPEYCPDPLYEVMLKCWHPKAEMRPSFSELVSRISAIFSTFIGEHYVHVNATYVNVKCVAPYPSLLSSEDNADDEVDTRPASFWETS

For the compound `CCc1c(C(=O)Nc2ccc(Oc3ccnc(N)c3Cl)c(F)c2)cnn1-c1ncccc1F` [Example 35, N-(4-((2-amino-3-chloropyridin-4-yl)oxy)-3-fluorophenyl)-5-ethyl-1-(3-fluoropyridin-2-yl)-1H-pyrazole-4-carboxamide], the pIC50 at cMET was less than 5.30; against RON it was more than 7.30.

Consider `COc1cccnc1-n1ncc(C(=O)Nc2ccc(Oc3ncnc(N)c3Cl)c(F)c2)c1C(F)(F)F` [Example 54, N-[4-(6-amino-5-chloro-pyrimidin-4-yl)oxy-3-fluoro-phenyl]-1-(3-methoxy-2-pyridyl)-5-(trifluoromethyl)pyrazole-4-carboxamide], for which the pIC50 was less than 5.30 against cMET and 6.30 to 7.30 against RON.

Turning to `Nc1ncnc(Oc2ccc(NC(=O)c3cnn(-c4cc(Cl)ccn4)c3C(F)(F)F)cc2F)c1Cl` [Example 52, N-[4-(6-amino-5-chloro-pyrimidin-4-yl)oxy-3-fluoro-phenyl]-1-(4-chloro-2-pyridyl)-5-(trifluoromethyl)pyrazole-4-carboxamide], the pIC50 against cMET is less than 5.30; against RON, 5.30 to 6.30.

On to `Nc1nccc(Oc2ccc(NC(=O)c3cnn(-c4ccc(F)nn4)c3C(F)(F)F)cc2F)c1Cl` [Example 30, N-(4-((2-amino-3-chloropyridin-4-yl)oxy)-3-fluorophenyl)-1-(6-fluoropyridazin-3-yl)-5-(trifluoromethyl)-1H-pyrazole-4-carboxamide], for which the pIC50 is less than 5.30 on cMET and 5.30 to 6.30 on RON.

`Cn1cc(-n2ncc(C(=O)Nc3ccc(Oc4ccnc(N)c4Cl)c(F)c3)c2C(F)(F)F)cn1` [Example 39, N-(4-((2-amino-3-chloropyridin-4-yl)oxy)-3-fluorophenyl)-1′-methyl-5-(trifluoromethyl)-1′H-[1,4′-bipyrazole]-4-carboxamide]: the pIC50 on cMET was less than 5.30; at RON it was 6.30 to 7.30.

With `Nc1nccc(Oc2ccc(NC(=O)c3cnn(-c4ncccc4Cl)c3C(F)(F)F)cc2F)c1Cl` [Example 10, N-(4-((2-amino-3-chloropyridin-4-yl)oxy)-3-fluorophenyl)-1-(3-chloropyridin-2-yl)-5-(trifluoromethyl)-1H-pyrazole-4-carboxamide], the pIC50 was 5.30 to 6.30 against cMET and more than 7.30 against RON.

On to `Nc1nccc(Oc2ccc(NC(=O)c3cnn(-c4cccnc4)c3C(F)(F)F)cc2F)c1Cl` [Example 18, N-(4-((2-amino-3-chloropyridin-4-yl)oxy)-3-fluorophenyl)-1-(pyridin-3-yl)-5-(trifluoromethyl)-1H-pyrazole-4-carboxamide], for which the pIC50 at cMET is 5.30 to 6.30; on RON it was 6.30 to 7.30.

`O=C(Nc1ccc(Oc2ncnc(NC3CC3)c2Cl)c(F)c1)c1cnn(-c2ncccc2Cl)c1C(F)(F)F` [Example 66, N-[4-[5-chloro-6-(cyclopropylamino)pyrimidin-4-yl]oxy-3-fluoro-phenyl]-1-(3-chloro-2-pyridyl)-5-(trifluoromethyl)pyrazole-4-carboxamide]: the negative-log IC50 (pIC50) against cMET and against RON was less than 5.30 throughout.

Turning to `Nc1nccc(Oc2ccc(NC(=O)c3cnn(-c4ncc(F)cc4F)c3C(F)(F)F)cc2F)c1Cl` [Example 29, N-(4-((2-amino-3-chloropyridin-4-yl)oxy)-3-fluorophenyl)-1-(3,5-difluoropyridin-2-yl)-5-(trifluoromethyl)-1H-pyrazole-4-carboxamide], the pIC50 at cMET is less than 5.30; at RON, more than 7.30.

Turning to `Nc1ncnc(Oc2ccc(NC(=O)c3cnn(-c4ncccn4)c3C(F)(F)F)cc2F)c1Cl` [Example 59, N-[4-(6-amino-5-chloro-pyrimidin-4-yl)oxy-3-fluoro-phenyl]-1-pyrimidin-2-yl-5-(trifluoromethyl)pyrazole-4-carboxamide], the pIC50 was less than 5.30 at cMET and more than 7.30 against RON.

On to `Nc1ncnc(Oc2ccc(NC(=O)c3cnn(-c4cccnn4)c3C(F)(F)F)cc2F)c1Cl` [Example 60, N-[4-(6-amino-5-chloro-pyrimidin-4-yl)oxy-3-fluoro-phenyl]-1-pyridazin-3-yl-5-(trifluoromethyl)pyrazole-4-carboxamide], for which the negative-log IC50 (pIC50) is less than 5.30 at cMET and 6.30 to 7.30 against RON.
